Source: patent US20070134814A1, “Methods and compositions for the detection of calcifying nano-particles, identification and quantification of associated proteins thereon, and correlation to disease” (priority 2005, published 2007)

Tested on: freshly collected human blood
Assay: Whole blood clotting slide test
Details: 10 μl solution added to plain glass slide before blood
Text: The method allows for measuring changes in the clotting time induced by contact with foreign surfaces, i.e. plain glass or coated glass, and for studying the effects of drugs on the clotting induced by foreign surface.
Venous blood was collected with venipuncture from 19 random volunteers participating in CNP epidemiological study (Ethical Committee Approval, Kuopio University). Volunteers signed an informed consent. Blood was collected with venipuncture in siliconized glass serum tubes, EDTA plasma tubes or citrate plasma tubes (Terumo), and was tested immediately after collection for whole blood clotting time on different test platforms.
200 μl of freshly drawn blood was added to pre-coated or plain glass slides which were put on a tilting shaker 15 tilts/minute at room temperature until formation of a solid clot was observed as “frozen droplet”. Experiments were carried out usually in triplicate to determine reproducibility of tests. CV % for the triplicate tests were less than 6.81% (CNP-coated slide, n=13), 8.79% (apatite-coated slide, n=15) and 10.37% (non-treated control slide, n=15). Clotting time results were analyzed by Bonferroni (Dunn) t Test (Table 1).
Therefore, to study the effects of apatite on clotting, a whole blood clotting slide test was developed. […]

Structure (SMILES)	effect on clotting time
O=C([O-])CN(CCN(CC(=O)[O-])CC(=O)[O-])CC(=O)[O-].[Ca+2].[Na+].[Na+] [Calcium EDTA]	did not affect the clotting time
CC(O)(P(=O)(O)O)P(=O)(O)O [etidronate]	did not affect the clotting time
